Columns and labels:
[1] = target: Serine/threonine-protein kinase B-raf (Homo sapiens, UniProt P15056); assay: Inhibition of B-Raf (unknown origin) by fluorescence polarization assay
Homo sapiens [2] = species on record: Homo sapiens; assay: Selectivity ratio of IC50 for AKT1 (unknown origin) to IC50 for B-Raf (unknown origin)
Homo sapiens [3] = species on record: Homo sapiens; assay: Selectivity ratio of IC50 for ALK5 (unknown origin) to IC50 for B-Raf (unknown origin)
Homo sapiens [4] = species on record: Homo sapiens; assay: Selectivity ratio of IC50 for aurora-A (unknown origin) to IC50 for B-Raf (unknown origin)
Homo sapiens [5] = species on record: Homo sapiens; assay: Selectivity ratio of IC50 for aurora-B (unknown origin) to IC50 for B-Raf (unknown origin)
Homo sapiens [6] = species on record: Homo sapiens; assay: Selectivity ratio of IC50 for BTK (unknown origin) to IC50 for B-Raf (unknown origin)
Homo sapiens [7] = species on record: Homo sapiens; assay: Selectivity ratio of IC50 for EGFR (unknown origin) to IC50 for B-Raf (unknown origin)
Homo sapiens [8] = species on record: Homo sapiens; assay: Selectivity ratio of IC50 for ERBB2 (unknown origin) to IC50 for B-Raf (unknown origin)
Homo sapiens [9] = species on record: Homo sapiens; assay: Selectivity ratio of IC50 for GSK3beta (unknown origin) to IC50 for B-Raf (unknown origin)
Homo sapiens [10] = species on record: Homo sapiens; assay: Selectivity ratio of IC50 for IGF1R (unknown origin) to IC50 for B-Raf (unknown origin)
Homo sapiens [11] = species on record: Homo sapiens; assay: Selectivity ratio of IC50 for IKK2 (unknown origin) to IC50 for B-Raf (unknown origin)
Homo sapiens [12] = species on record: Homo sapiens; assay: Selectivity ratio of IC50 for JNK3 (unknown origin) to IC50 for B-Raf (unknown origin)
Homo sapiens [13] = species on record: Homo sapiens; assay: Selectivity ratio of IC50 for PKA (unknown origin) to IC50 for B-Raf (unknown origin)
Homo sapiens [14] = species on record: Homo sapiens; assay: Selectivity ratio of IC50 for ROCK1 (unknown origin) to IC50 for B-Raf (unknown origin)
Homo sapiens [15] = species on record: Homo sapiens; assay: Selectivity ratio of IC50 for SGK1 (unknown origin) to IC50 for B-Raf (unknown origin)
Homo sapiens [16] = species on record: Homo sapiens; assay: Selectivity ratio of IC50 for SYK (unknown origin) to IC50 for B-Raf (unknown origin)
Homo sapiens [17] = species on record: Homo sapiens; assay: Selectivity ratio of IC50 for ZAP70 (unknown origin) to IC50 for B-Raf (unknown origin)

Serine/threonine-protein kinase B-raf, sequence (P15056 whole entry): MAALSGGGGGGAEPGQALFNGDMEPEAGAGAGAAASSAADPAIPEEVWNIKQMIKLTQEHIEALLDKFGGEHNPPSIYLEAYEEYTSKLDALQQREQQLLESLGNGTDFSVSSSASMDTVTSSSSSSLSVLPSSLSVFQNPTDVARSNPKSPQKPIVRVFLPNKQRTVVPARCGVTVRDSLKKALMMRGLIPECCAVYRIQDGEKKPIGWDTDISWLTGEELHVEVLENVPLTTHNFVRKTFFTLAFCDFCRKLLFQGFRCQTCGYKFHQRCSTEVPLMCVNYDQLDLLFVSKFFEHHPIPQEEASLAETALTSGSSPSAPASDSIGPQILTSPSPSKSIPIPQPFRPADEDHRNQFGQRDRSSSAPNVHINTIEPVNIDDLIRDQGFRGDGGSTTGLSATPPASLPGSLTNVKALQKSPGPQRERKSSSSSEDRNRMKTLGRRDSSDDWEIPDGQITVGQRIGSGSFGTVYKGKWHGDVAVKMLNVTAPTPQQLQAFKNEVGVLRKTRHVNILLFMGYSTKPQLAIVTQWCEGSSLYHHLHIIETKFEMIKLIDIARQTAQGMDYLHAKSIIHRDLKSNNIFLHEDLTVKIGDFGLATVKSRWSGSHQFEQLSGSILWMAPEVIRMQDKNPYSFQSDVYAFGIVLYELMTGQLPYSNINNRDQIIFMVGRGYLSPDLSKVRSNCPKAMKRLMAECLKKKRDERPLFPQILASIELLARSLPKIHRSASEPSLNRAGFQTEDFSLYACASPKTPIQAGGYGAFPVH

Nc1ncc(-c2cccnc2)c2scc(-c3cccc(NC(=O)Cc4cccs4)c3)c12
IC50 [1]: 45 nM

Nc1ncc(-c2cccnc2)c2scc(-c3cccc(NC(=O)Nc4cc(C(F)(F)F)ccc4F)c3)c12
IC50 [1]: 21.4 nM

Nc1ncc(-c2cccnc2)c2scc(-c3cccc(NC(=O)NCc4ccccc4)c3)c12
IC50 [1]: 20.9 nM

Cc1noc(C)c1NC(=O)Nc1cccc(-c2csc3c(-c4cccnc4)cnc(N)c23)c1
IC50 [1]: 692 nM

Nc1ncc(-c2cccnc2)c2scc(-c3cccc(NC(=O)C4CCCCC4)c3)c12
IC50 [1]: 1550 nM

Nc1ncc(-c2cccnc2)c2scc(-c3cccc(NC(=O)c4cc(F)ccc4F)c3)c12
IC50 [1]: 49 nM

Nc1ncc(-c2cccnc2)c2scc(-c3cccc(NS(=O)(=O)c4ccccc4)c3)c12
IC50 [1]: > 10000 nM

Nc1ncc(-c2cccnc2)c2scc(-c3cccc(NC(=O)Nc4c(F)cccc4F)c3)c12
IC50 [1]: 19.5 nM

Nc1ncc(-c2cccnc2)c2scc(-c3cccc(NC(=O)Nc4ccc(Cl)c(C(F)(F)F)c4)c3)c12
IC50 [1]: 16.6 nM | Ratio IC50 (Homo sapiens [2]): > 100 | Ratio IC50 (Homo sapiens [3]): > 100 | Ratio IC50 (Homo sapiens [4]): > 100 | Ratio IC50 (Homo sapiens [5]): > 100 | Ratio IC50 (Homo sapiens [6]): > 100 | Ratio IC50 (Homo sapiens [7]): > 100 | Ratio IC50 (Homo sapiens [8]): > 100 | Ratio IC50 (Homo sapiens [9]): > 100 | Ratio IC50 (Homo sapiens [10]): > 100 | Ratio IC50 (Homo sapiens [11]): > 100 | Ratio IC50 (Homo sapiens [12]): > 100 | Ratio IC50 (Homo sapiens [13]): > 100 | Ratio IC50 (Homo sapiens [14]): > 100 | Ratio IC50 (Homo sapiens [15]): > 100 | Ratio IC50 (Homo sapiens [16]): > 100 | Ratio IC50 (Homo sapiens [17]): > 100

Nc1ncc(-c2cccnc2)c2scc(-c3cccc(NC(=O)Nc4ccc(C(F)(F)F)cc4)c3)c12
IC50 [1]: 25.1 nM

Nc1ncc(-c2cccnc2)c2scc(-c3cccc(NC(=O)Nc4ccccc4)c3)c12
IC50 [1]: 13.8 nM

Nc1ncc(-c2cccnc2)c2scc(-c3cccc(NC(=O)c4ccccc4)c3)c12
IC50 [1]: 93 nM

COc1cccc(NC(=O)Nc2cccc(-c3csc4c(-c5cccnc5)cnc(N)c34)c2)c1
IC50 [1]: 9.6 nM

Nc1ncc(-c2cccnc2)c2scc(-c3cccc(NC(=O)Nc4ccc(OCc5ccccc5)cc4)c3)c12
IC50 [1]: 933 nM

Nc1ncc(-c2cccnc2)c2scc(-c3cccc(NC(=O)NC4CCCCC4)c3)c12
IC50 [1]: 30.9 nM

Cn1cccc1C(=O)Nc1cccc(-c2csc3c(-c4cccnc4)cnc(N)c23)c1
IC50 [1]: 4170 nM

Nc1ncc(-c2cccnc2)c2scc(-c3cccc(NC(=O)c4cccc(C(F)(F)F)c4)c3)c12
IC50 [1]: 5.1 nM | Ratio IC50 (Homo sapiens [2]): > 40 | Ratio IC50 (Homo sapiens [3]): > 40 | Ratio IC50 (Homo sapiens [4]): > 40 | Ratio IC50 (Homo sapiens [5]): > 40 | Ratio IC50 (Homo sapiens [6]): > 40 | Ratio IC50 (Homo sapiens [7]): > 40 | Ratio IC50 (Homo sapiens [8]): > 40 | Ratio IC50 (Homo sapiens [9]): > 40 | Ratio IC50 (Homo sapiens [10]): > 40 | Ratio IC50 (Homo sapiens [11]): > 40 | Ratio IC50 (Homo sapiens [12]): > 40 | Ratio IC50 (Homo sapiens [13]): > 40 | Ratio IC50 (Homo sapiens [14]): > 40 | Ratio IC50 (Homo sapiens [15]): > 40 | Ratio IC50 (Homo sapiens [16]): > 40 | Ratio IC50 (Homo sapiens [17]): > 40

Nc1ncc(-c2cccnc2)c2scc(-c3cccc(NC(=O)Cc4ccccc4)c3)c12
IC50 [1]: 19 nM

CC(C)(C)NC(=O)Nc1cccc(-c2csc3c(-c4cccnc4)cnc(N)c23)c1
IC50 [1]: 7940 nM

Nc1cccc(-c2csc3c(-c4cccnc4)cnc(N)c23)c1
IC50 [1]: > 10000 nM
